From ChEMBL document CHEMBL1201862, “PubChem BioAssay data set” (2004)
Where “and” joins values, the source holds several entries; their conditions need not be identical. Equal entries are not always repeated.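 Growth conditions: 96-well plates. Treatment: test compound, 48 hours, 5 concentrations. Analysis: linear interpolation between bracketing concentrations; unreached endpoints set to highest concentration. Abbreviation: GI50, concentration required for 50% inhibition of growth.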 Calls of active or inactive are those of the source. Cut-off read from the data, not from the text of the source: active = GI50 up to about 1.1 µM and inactive = higher.

How the values were obtained:
Experiment in all cases: growth of human tumour cells (NCI), 48 h
ACHN = test system: ACHN
PC-3 = test system: PC-3
NCI/ADR-RES = test system: NCI/ADR-RES
SF-539 = test system: SF-539
NCI-H23 = test system: NCI-H23
SF-268 = test system: SF-268
SF-295 = test system: SF-295
HCC 2998 = test system: HCC 2998
CAKI-1 = test system: CAKI-1
K562 = test system: K562
HCT-15 = test system: HCT-15
SNB-19 = test system: SNB-19
HT-29 = test system: HT-29
HOP-92 = test system: HOP-92
CCRF-CEM = test system: CCRF-CEM
A549 = test system: A549
HOP-62 = test system: HOP-62
SN12C = test system: SN12C
MDA-MB-435 = test system: MDA-MB-435
TK-10 = test system: TK-10

SMILES	GI50 (ACHN)	GI50 (PC-3)	GI50 (NCI/ADR-RES)	GI50 (SF-539)	GI50 (NCI-H23)	GI50 (SF-268)	GI50 (SF-295)	GI50 (HCC 2998)	GI50 (CAKI-1)	GI50 (K562)	GI50 (HCT-15)	GI50 (SNB-19)	GI50 (HT-29)	GI50 (HOP-92)	GI50 (CCRF-CEM)	GI50 (A549)	GI50 (HOP-62)	GI50 (SN12C)	GI50 (MDA-MB-435)	GI50 (TK-10)
O=C(CCN1CCCCC1)Nc1ccc2c(c1)C(=O)c1ccc(NC(=O)CCN3CCCCC3)cc1C2=O	11.6 µM (inactive)	2.26 µM (inactive)	10.9 µM (inactive)	2.61 µM (inactive)	6.05 µM (inactive)	7.96 µM (inactive)	5.22 µM (inactive)	4.45 µM (inactive)	12.6 µM (inactive)	2.25 µM (inactive)	2.59 µM	4.48 µM (inactive)	3.24 µM (inactive)	15.4 µM (inactive)	2.37 µM (inactive)	4.84 µM (inactive)	2.12 µM (inactive)	5.81 µM (inactive)	1.82 µM (inactive)	8.34 µM (inactive)
CN(C)C(=S)NC(=S)Nc1ccc2ccccc2c1	18.6 µM (inactive)	6.1 µM (inactive)	13.8 µM (inactive)	15.1 µM (inactive)	9.64 µM (inactive)	10.3 µM (inactive)	4.55 µM (inactive)	15.5 µM (inactive)	13.9 µM (inactive)	2.65 µM (inactive)	9.89 µM	12.3 µM (inactive)	12 µM (inactive)	17 µM (inactive)	0.804 µM (active)	6.73 µM (inactive)	18.4 µM (inactive)	2.69 µM (inactive)	18.8 µM (inactive)	22.7 µM (inactive)
CCC(C)C1=C(O)[N+]2([O-])Oc3ccc(-c4c(O)c(O)c(-c5ccc(OC(C)=O)cc5)c(OC(C)=O)c4OC(C)=O)cc3OC2(C(C)CC)C(=O)N1O (stereo not given)	> 50 µM (inactive)	> 50 µM (inactive)	> 50 µM (inactive)	> 50 µM (inactive)	> 50 µM (inactive)	41.2 µM (inactive)	> 50 µM (inactive)	11.9 µM (inactive)	> 50 µM (inactive)	28.8 µM (inactive) and 15.4 µM (inactive)	> 50 µM	> 50 µM (inactive)	> 50 µM (inactive)	8.17 µM (inactive) and 10 µM (inactive)	19.3 µM (inactive) and 19.2 µM (inactive)	> 50 µM (inactive) and 29.2 µM (inactive)	> 50 µM (inactive)	42.9 µM (inactive)	26.1 µM (inactive) and 22.9 µM (inactive)	> 50 µM (inactive)
CCOC(=O)C(C(=S)Nc1ccccc1)c1nn2c(=O)cc(C)nc2s1 (stereo not given)	20.5 µM (inactive)	24.8 µM (inactive)	26.7 µM (inactive)	22.9 µM (inactive)	35.6 µM (inactive)	28.8 µM (inactive)	32.4 µM (inactive)	25.1 µM (inactive)	20.1 µM (inactive)	20.9 µM (inactive)	27.7 µM	35.6 µM (inactive)	19.3 µM (inactive)	16.4 µM (inactive)	33.8 µM (inactive)	37.4 µM (inactive)	65 µM (inactive)	36.7 µM (inactive)	20.9 µM (inactive)	29.7 µM (inactive)
CC(C)=CC(=O)C[C@H]1C(=O)O[C@@H]2C[C@H]3C(C)=CC(=O)[C@@H](O)[C@]3(C)[C@H]3[C@@]4(O)OC[C@]32[C@@H]1[C@@H](C)[C@H]4O	0.0278 µM (active)	0.0159 µM (active)	0.631 µM (active)	< 0.01 µM (active)	< 0.01 µM (active)	0.0275 µM (active)	0.023 µM (active)	0.0313 µM (active)	0.0975 µM (active)	< 0.01 µM (active)	0.0382 µM	< 0.0127 µM (active)	< 0.0107 µM (active)	0.0216 µM (active)	< 0.01 µM (active)	0.122 µM (active)	0.0227 µM (active)	0.043 µM (active)	0.0222 µM (active)	0.019 µM (active)
COc1ccc(-c2coc3c4c(ccc3c2=O)OCO4)cc1OC	49.2 µM (inactive)	> 100 µM (inactive)	35.8 µM (inactive)	40.6 µM (inactive)	25 µM (inactive)	34 µM (inactive)	27.9 µM (inactive)	> 100 µM (inactive)	91.6 µM (inactive)	7.6 µM (inactive)	18 µM	29 µM (inactive)	> 100 µM (inactive)	36.3 µM (inactive)	> 100 µM (inactive)	55.6 µM (inactive)	36.7 µM (inactive)	> 100 µM (inactive)	5.87 µM (inactive)	63 µM (inactive)
O=C1CC(NC2CC(=O)c3c(Br)sc(Br)c32)c2c(Br)sc(Br)c21 (stereo not given)	2.39 µM (inactive)	2.48 µM (inactive)	13.9 µM (inactive)	1.27 µM (inactive)	9.48 µM (inactive)	11.7 µM (inactive)	13.6 µM (inactive)	17 µM (inactive)	3.63 µM (inactive)	2.55 µM (inactive)	2.94 µM	14.9 µM (inactive)	2.84 µM (inactive)	6 µM (inactive)	0.998 µM (active)	17.5 µM (inactive)	2.99 µM (inactive)	1.56 µM (inactive)	3.72 µM (inactive)	2.88 µM (inactive)
C/N=c1\sc2nc(C#N)c(C#N)nc2n1C	22.5 µM (inactive)	40.2 µM (inactive)	25.5 µM (inactive)	38.7 µM (inactive)	18.3 µM (inactive)	32.4 µM (inactive)	18 µM (inactive)	25.5 µM (inactive)	23.8 µM (inactive)	25.6 µM (inactive)	19.2 µM	28.4 µM (inactive)	15.9 µM (inactive)	21.2 µM (inactive)	19.7 µM (inactive)	18 µM (inactive)	23.4 µM (inactive)	37.9 µM (inactive)	21 µM (inactive)	25.5 µM (inactive)
COc1cccc2c1C(=O)c1ccc3cc(CCl)cc(O)c3c1C2=O	0.233 µM (active)	0.243 µM (active)	0.353 µM (active)	0.272 µM (active)	0.402 µM (active)	0.379 µM (active)	0.314 µM (active)	0.951 µM (active)	0.733 µM (active)	0.29 µM (active)	0.254 µM	0.897 µM (active)	0.207 µM (active)	0.394 µM (active)	0.309 µM (active)	0.414 µM (active)	0.483 µM (active)	0.163 µM (active)	0.198 µM (active)	0.238 µM (active)
CCCC(=O)OCC1OC(n2cc(F)c(=O)[nH]c2=O)C(F)C1O (stereo not given)	10.9 µM (inactive)	> 100 µM (inactive)	53.3 µM (inactive)	0.774 µM (active)	> 88.7 µM (inactive)	> 26.4 µM (inactive)	> 27.5 µM (inactive)	> 100 µM (inactive)	> 10 µM (inactive)	6.35 µM (inactive)	> 84.7 µM	78.5 µM (inactive)	> 86.3 µM (inactive)	> 100 µM (inactive)	2.24 µM (inactive)	5.85 µM (inactive)	4.57 µM (inactive)	> 82.8 µM (inactive)	61.5 µM (inactive)	> 100 µM (inactive)
O=c1ccn(C2OC(CO)C(O)C2[Se]c2ccccc2)c(=O)[nH]1 (stereo not given)	> 100 µM (inactive)	> 100 µM (inactive)	> 100 µM (inactive)	> 100 µM (inactive)	> 100 µM (inactive)	> 100 µM (inactive)	> 100 µM (inactive)	92.3 µM (inactive)	> 100 µM (inactive)	> 100 µM (inactive)	> 100 µM	> 100 µM (inactive)	> 100 µM (inactive)	> 100 µM (inactive)	> 100 µM (inactive)	> 100 µM (inactive)	> 100 µM (inactive)	> 100 µM (inactive)	> 100 µM (inactive)	0.24 µM (active)
NC1CC(=O)c2csc(Br)c21 (stereo not given)	16.4 µM (inactive)	14 µM (inactive)	20.1 µM (inactive)	2.52 µM (inactive)	17.1 µM (inactive)	20 µM (inactive)	35.2 µM (inactive)	18.5 µM (inactive)	10.9 µM (inactive)	5.97 µM (inactive)	7.71 µM	23.3 µM (inactive)	19.6 µM (inactive)	9.89 µM (inactive)	4.15 µM (inactive)	36.7 µM (inactive)	24.4 µM (inactive)	13.4 µM (inactive)	12.9 µM (inactive)	12.9 µM (inactive)
CN(C)Cc1cc(C(=O)/C=C/c2ccccc2)cc(CN(C)C)c1O	15.8 µM (inactive)	12.6 µM (inactive)	26.5 µM (inactive)	19.7 µM (inactive)	28.1 µM (inactive)	32.5 µM (inactive)	15.5 µM (inactive)	21.3 µM (inactive)	36.1 µM (inactive)	14.2 µM (inactive)	30.3 µM	29.1 µM (inactive)	16.9 µM (inactive)	26.7 µM (inactive)	19.4 µM (inactive)	23.4 µM (inactive)	32.4 µM (inactive)	11.7 µM (inactive)	31.6 µM (inactive)	37.3 µM (inactive)
COC(=O)NCCc1n[nH]c2c1C(=O)C=C(Nc1ccccc1OC)C2=O	38.6 µM (inactive)	31.6 µM (inactive)	21.1 µM (inactive)	17.5 µM (inactive)	16 µM (inactive)	45.7 µM (inactive)	44.5 µM (inactive)	17.7 µM (inactive)	33.9 µM (inactive)	30 µM (inactive)	28.4 µM	> 100 µM (inactive)	28.1 µM (inactive)	41.7 µM (inactive)	30.1 µM (inactive)	41.2 µM (inactive)	83.4 µM (inactive)	40.3 µM (inactive)	17.1 µM (inactive)	53.7 µM (inactive)
